Blank lines part the entries; values can stand above or below the compound they belong to.
Tests used:
Type in all cases: physicochemical
[1] = Solubility of Acoltremon (AR-15512) in exemplary formulations
Description: (§1) Time (min) % Mobile Phase A % Mobile Phase B

[2] = Solubility of aceclidine in exemplary formulations; settings: for Aceclidine solubility: Unsaturated
Procedure: An appropriate amount of aceclidine was dissolved in various MCT (to obtain a mixed solution), then SFA (F6H8 or F4H5) was added to the solution in the indicated proportions and the solution was mixed well with magnetic stirring.

[3] = Solubility of aceclidine in F6H8, MCT and 10% MCT in F6H8 by GC; settings: GC method
Procedure: 5 mg aceclidine was added into a PP tube, 1 ml of F6H8 was added, the PP tube was shaken for about 5 minutes and aceclidine was completely dissolved in the solution. Further 18 mg aceclidine was added, and shaking was continued until no insoluble substance was found. […] The phenomenon disappeared after re-shaking.
The above formulations were centrifuged and the supernatants filtered through 0.45 micron filters without further dilution. One sample was prepared from each solvent for GC analysis.
The GC protocols and parameters are listed below:
Injection Volume: 0.5 ul (Direct injection)
Detector Temp (FID): 300° C.
Gradient: 70° C. (hold 2 min)→12° C./min→280° C. (hold 7 min)
20 mg aceclidine was added into a PP tube, and 1 ml MCT was added. The PP tube was shaken for about 5 minutes and the resulting solution became clear. Further 40 mg of aceclidine was added. The PP tube was shaken again. […] The phenomenon disappeared after re-shaking. A small sample was taken and solubility was determined according to the GC method described in Example 17.
Sample preparation was prepared and analyzed based on the protocols described in Examples 17 and 18.

[4] = Stability of aceclidine in F6H8; settings: dissolved in F6H8, 25° C., 1, 3, 6, 9 and 12 months
Procedure: Aceclidine is dissolved in F6H8 as described in Example 17. The level of aceclidine is measured by the GC method at 25° C. at 1, 3, 6, 9 and 12 months. The aceclidine in the formulation is defined as stable if the level is maintained between 90-110% of the original level.

[5] = Solubility of lotilaner in exemplary formulations
Description: as §1

[6] = Solubility of ivermectin (CBT-273) in exemplary formulations
[7] = Solubility of axitinib in exemplary formulations
Procedure: Mobile phase A: 0.05% TFA-H2O
Mobile phase B: 0.05% TFA-Acetonitrile
Flow rate: 1.0 mL/min Wavelength: 362 nm
Injection volume: 30 μL Column temperature: 40° C.

[8] = Solubility of lifitegrast in exemplary formulations
Procedure: Chromatographic column: Agilent ZORBAX SB-C18, 4.6*250 mm, 5 μm Mobile phase A: 0.1% Phosphoric Acid-H2O Mobile phase B: Acetonitrile Flow rate: 1.0 mL/min Wavelength: UV/220 nm Injection volume: 10 μL Column temperature: 35° C.
Since the auxiliary peaks of MCM and MC8-2 overlapped with the main peaks in the above gradient method, the analytical methods for MCM and MC8-2 were adjusted as follows: Chromatographic column: Agilent ZORBAX SB-C18, 4.6*250 mm, 5 μm Mobile phase A: 0.1% Phosphoric Acid-H2O Mobile phase B: Acetonitrile Flow rate: 1.0 mL/min Wavelength: UV/220 nm Injection volume: 10 μL Column temperature: 35° C.

Acoltremon (AR-15512) Saturated solubility ([1]; 10% Captex 170/90% F4H5, RT): 0.21 mg/g
Acoltremon (AR-15512) Saturated solubility ([1]; 10% Captex 200P / 90% F4H5, RT): 0.36 mg/g
Acoltremon (AR-15512) Saturated solubility ([1]; 10% Captex 200P/90% F6H8, RT): 0.36 mg/g
Acoltremon (AR-15512) Saturated solubility ([1]; 10% Captex 355/90% F6H8, RT): 0.7 mg/g
Acoltremon (AR-15512) Saturated solubility ([1]; 10% MCT/90% F4H5, RT): 0.28 mg/g
Acoltremon (AR-15512) Saturated solubility ([1]; 10% MCT/90% F6H8, RT): 0.29 mg/g
Acoltremon (AR-15512) Saturated solubility ([1]; 20% Captex 170/80% F4H5, RT): 0.42 mg/g
Acoltremon (AR-15512) Saturated solubility ([1]; 20% Captex 170/80% F6H8, RT): 0.43 mg/g
Acoltremon (AR-15512) Saturated solubility ([1]; 20% Captex 200P / 80% F4H5, RT): 0.66 mg/g
Acoltremon (AR-15512) Saturated solubility ([1]; 20% Captex 200P / 80% F6H8, RT): 0.53 mg/g
Acoltremon (AR-15512) Saturated solubility ([1]; 20% MCT/80% F4H5, RT): 0.55 mg/g
Acoltremon (AR-15512) Saturated solubility ([1]; 20% MCT/80% F6H8, RT): 0.55 mg/g
Acoltremon (AR-15512) Saturated solubility ([1]; 100% Captex 170, RT): 2.03 mg/g
Acoltremon (AR-15512) Saturated solubility ([1]; 100% Captex 200P, RT): 3.21 mg/g
Acoltremon (AR-15512) Saturated solubility ([1]; 100% Captex 8000, RT): 1.84 mg/g
Acoltremon (AR-15512) Saturated solubility ([1]; 100% F4H5, RT): 0.064 mg/g
Acoltremon (AR-15512) Saturated solubility ([1]; 100% F6H8, RT): 0.055 mg/g
Acoltremon (AR-15512) Saturated solubility ([1]; 100% MCT, RT): 3.12 mg/g
Compound: COc1ccc(NC(=O)[C@@H]2C[C@H](C)CC[C@H]2C(C)C)cc1 [Acoltremon (AR-15512), (1R,2S,5R)—N-(4-methoxyphenyl)-5-methyl-2-(1-methylethyl) cyclohexanecarboxamide]

Compound: CC(=O)OC1CN2CCC1CC2 (stereo not shown) [Aceclidine, aceclidine]
aceclidine concentration that is stable and uniform ([2]; 10% Captex 355/F6H8, RT): 1.5%-2% is stable
Aceclidine solubility ([2]; 10% Captex 355/F6H8, RT): > 21.4(Unsaturated), mg/g
aceclidine concentration that is stable and uniform ([2]; 10% Captex 8000/F6H8, RT): 2% is stable and
Aceclidine solubility ([2]; 10% Captex 8000/F6H8, RT): > 17.0(Unsaturated), mg/g
Aceclidine solubility ([2]; 10% MCT/90% F6H8, RT): > 17.0(Unsaturated) mg/g
Aceclidine solubility ([2]; 100% Captex 300, RT): > 66.7(Unsaturated) mg/g
Aceclidine solubility ([2]; 100% Captex 355, RT): > 203.4(Unsaturated) mg/g
Aceclidine solubility ([2]; 100% Captex 8000, RT): > 164.0(Unsaturated) mg/g
Aceclidine solubility ([2]; 100% MCT, RT): > 320.9(Unsaturated) mg/g
solubility of aceclidine in 10% MCT in F6H8 [3]: around 2 % (w/v)
solubility of aceclidine in F6H8 [3]: around 1.5 % (w/v)
solubility of aceclidine in MCT [3]: around 5 % (w/v)
stability (level maintained between 90-110% of the original level) [4]: remains stable

Lotilaner solubility ([5]; 10% Captex 300/90% F6H8, RT): 1.21 mg/g
Lotilaner solubility ([5]; 10% Captex 8000/90% F6H8, RT): 3.47 mg/g
Lotilaner solubility ([5]; 10% MCT/90% F6H8, RT): 2.7 mg/g
Lotilaner solubility ([5]; 20% MCT/80% F6H8, RT): 5.42 mg/g
Lotilaner solubility ([5]; 100% Captex 300 (Unsaturated), RT): > 11.32 mg/g
Lotilaner solubility ([5]; 100% Captex 8000 (Unsaturated), RT): > 29.04 mg/g
Lotilaner solubility ([5]; 100% MCT (Unsaturated), RT): > 25.47 mg/g
Compound: Cc1cc(C2=NO[C@@](c3cc(Cl)c(Cl)c(Cl)c3)(C(F)(F)F)C2)sc1C(=O)NCC(=O)NCC(F)(F)F [Lotilaner, lotilaner]

Compound: ivermectin [Ivermectin (CBT-273)]
Ivermectin (CBT-273) Saturated solubility ([6]; 10% Captex 300/90% F6H8, RT): 1.35 mg/g
Ivermectin (CBT-273) Saturated solubility ([6]; 10% Captex 355/90% F4H5, RT): 0.61 mg/g
Ivermectin (CBT-273) Saturated solubility ([6]; 10% Captex 355/90% F6H8, RT): 0.46 mg/g
Ivermectin (CBT-273) Saturated solubility ([6]; 10% Captex 8000/90% F6H8, RT): 1.36 mg/g
Ivermectin (CBT-273) Saturated solubility ([6]; 20% Captex 355/80% F4H5, RT): 3.03 mg/g
Ivermectin (CBT-273) Saturated solubility ([6]; 20% Captex 355/80% F6H8, RT): 3.87 mg/g
Ivermectin (CBT-273) Saturated solubility ([6]; 100% Captex 355, RT): 26.51 mg/g
Ivermectin (CBT-273) Saturated solubility ([6]; 100% Captex 8000, RT): 34.62 mg/g
Ivermectin (CBT-273) Saturated solubility ([6]; 100% Captex ® 300, RT): 27.91 mg/g
Ivermectin (CBT-273) Saturated solubility ([6]; 100% F4H5, RT): 0.12 mg/g
Ivermectin (CBT-273) Saturated solubility ([6]; 100% F6H8, RT): 0.04 mg/g

Axitinib Saturated solubility ([7]; 100% Captex 300, RT): 0.022 mg/g
Axitinib Saturated solubility ([7]; 100% Captex 355, RT): 0.03 mg/g
Axitinib Saturated solubility ([7]; 100% Captex 8000, RT): 0.1 mg/g
Compound: CNC(=O)c1ccccc1Sc1ccc2c(/C=C/c3ccccn3)n[nH]c2c1 [Axitinib]

Lifitegrast Saturated solubility ([8]; 10% MCT/90% F6H8, RT): 0 mg/g
Lifitegrast Saturated solubility ([8]; 20% MCT/80% F6H8, RT): 0 mg/g
Lifitegrast Saturated solubility ([8]; 50% MCT/50% F6H8, RT): 0.004 mg/g
Lifitegrast Saturated solubility ([8]; 100% Captex 300, RT): 0.28 mg/g
Lifitegrast Saturated solubility ([8]; 100% Captex 355, RT): 0.27 mg/g
Lifitegrast Saturated solubility ([8]; 100% Captex 8000, RT): 0.56 mg/g
Compound: CS(=O)(=O)c1cccc(C[C@H](NC(=O)c2c(Cl)cc3c(c2Cl)CCN(C(=O)c2ccc4ccoc4c2)C3)C(=O)O)c1 [Lifitegrast, lifitegrast]
